In patent US20250101038A1, “COMPOUNDS” (priority 2021, published 2025):

Target: T1, 5-HT2B receptor (Homo sapiens, UniProt P41595)
T1 construct: host or cells: CHO-K1
Assay: cell-based
Settings: agonist activity, Ca2+ flux, CHO-K1 cells

T1 sequence (P41595 whole entry): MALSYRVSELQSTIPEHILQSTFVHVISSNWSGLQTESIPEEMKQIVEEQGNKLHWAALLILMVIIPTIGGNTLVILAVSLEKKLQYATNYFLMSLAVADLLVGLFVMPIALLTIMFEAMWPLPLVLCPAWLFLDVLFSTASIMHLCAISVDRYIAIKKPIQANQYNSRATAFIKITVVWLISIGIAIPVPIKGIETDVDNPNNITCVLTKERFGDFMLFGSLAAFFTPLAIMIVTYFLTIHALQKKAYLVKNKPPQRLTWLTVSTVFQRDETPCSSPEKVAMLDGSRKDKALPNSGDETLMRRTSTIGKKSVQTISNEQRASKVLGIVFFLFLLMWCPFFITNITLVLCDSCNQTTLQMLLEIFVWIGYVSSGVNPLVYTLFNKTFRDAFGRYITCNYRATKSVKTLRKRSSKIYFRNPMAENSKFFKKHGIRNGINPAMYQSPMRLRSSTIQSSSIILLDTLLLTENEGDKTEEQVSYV

SMILES	Emax [%]
CCN(C)CCc1c[nH]c2ccc(OC)c(C)c12 [Example P-37, N-ethyl-2-(5-methoxy-4-methyl-1H-indol-3-yl)-N-methylethan-1-amine]	30.9
CCN(C)CCc1c[nH]c2c(C)cc(OC)cc12 [Example P-51, N-ethyl-2-(5-methoxy-7-methyl-1H-indol-3-yl)-N-methylethan-1-amine]	0.85
